Source: patent US20030161787A1, “Method for the identification of agents and genes influencing cardiovascular function” (priority 2000, published 2003)

What was measured:
[1] = system: nifedipine-treated zebrafish; test: Reversal of nifedipine-induced effects on the heart of zebrafish larvae by a second drug; assay type: in vivo
Protocol: Similarely, putative anti-arrhythmic agents can be identified by studying heart beats of teleost larvae which were bathed prior to or simultaneous with the addition of the agents in a solution of an arrhythmia-inducing drug.
(§1) At the day of the experiment 10 larvae were transferred to small petri dishes filled with 10 ml embryo medium, 0.5 ml MESAB solution and 10 μl of the respective drug (or +10 μl of a second drug) added from a 1000-fold stock solution prepared with DMSO, these three components were previously mixed in 50 ml plastic tubes (controls only receive 10 μl DMSO).
(§2) At certain time points the contractility of the heart and blood flow was monitored, and the heart rate was determined by counting the heart beat with the aid of a stereo-microscope.

[2] = system: zebrafish larvae; test: Zebrafish larvae bathed in drug-containing medium; heart beat rate, contractility and blood flow monitored by microscope; assay type: in vivo; settings: for effect on heart beat rate, contractility and blood flow (cardiac performance) of untreated fish: applied alone to the surrounding medium, 4 d old larvae (FIG. 4); for effect on heart beat rate, contractility and blood flow: drug added to bathing medium, 2 d old larvae, 100 μM (FIG. 1) or increasing concentrations (FIG. 2)
Protocol: About 50 zebrafish larvae were incubated for 2-7 d at 22-28° C. in petri dishes filled with 30 ml embryo medium.
as §1, §2

[3] = system: three-day old zebrafish larvae; test: Induction of arrhythmic heart beat in three-day old zebrafish larvae by arrhythmia-inducing drugs; settings: low doses in medium; anaesthetized larvae, dissecting microscope
[4] = molecular target: HERG (human ether-a-gogo-related gene) (Homo sapiens, UniProt Q12809); settings: cited from earlier work
Chain of HERG (human ether-a-gogo-related gene) (Q12809 whole entry): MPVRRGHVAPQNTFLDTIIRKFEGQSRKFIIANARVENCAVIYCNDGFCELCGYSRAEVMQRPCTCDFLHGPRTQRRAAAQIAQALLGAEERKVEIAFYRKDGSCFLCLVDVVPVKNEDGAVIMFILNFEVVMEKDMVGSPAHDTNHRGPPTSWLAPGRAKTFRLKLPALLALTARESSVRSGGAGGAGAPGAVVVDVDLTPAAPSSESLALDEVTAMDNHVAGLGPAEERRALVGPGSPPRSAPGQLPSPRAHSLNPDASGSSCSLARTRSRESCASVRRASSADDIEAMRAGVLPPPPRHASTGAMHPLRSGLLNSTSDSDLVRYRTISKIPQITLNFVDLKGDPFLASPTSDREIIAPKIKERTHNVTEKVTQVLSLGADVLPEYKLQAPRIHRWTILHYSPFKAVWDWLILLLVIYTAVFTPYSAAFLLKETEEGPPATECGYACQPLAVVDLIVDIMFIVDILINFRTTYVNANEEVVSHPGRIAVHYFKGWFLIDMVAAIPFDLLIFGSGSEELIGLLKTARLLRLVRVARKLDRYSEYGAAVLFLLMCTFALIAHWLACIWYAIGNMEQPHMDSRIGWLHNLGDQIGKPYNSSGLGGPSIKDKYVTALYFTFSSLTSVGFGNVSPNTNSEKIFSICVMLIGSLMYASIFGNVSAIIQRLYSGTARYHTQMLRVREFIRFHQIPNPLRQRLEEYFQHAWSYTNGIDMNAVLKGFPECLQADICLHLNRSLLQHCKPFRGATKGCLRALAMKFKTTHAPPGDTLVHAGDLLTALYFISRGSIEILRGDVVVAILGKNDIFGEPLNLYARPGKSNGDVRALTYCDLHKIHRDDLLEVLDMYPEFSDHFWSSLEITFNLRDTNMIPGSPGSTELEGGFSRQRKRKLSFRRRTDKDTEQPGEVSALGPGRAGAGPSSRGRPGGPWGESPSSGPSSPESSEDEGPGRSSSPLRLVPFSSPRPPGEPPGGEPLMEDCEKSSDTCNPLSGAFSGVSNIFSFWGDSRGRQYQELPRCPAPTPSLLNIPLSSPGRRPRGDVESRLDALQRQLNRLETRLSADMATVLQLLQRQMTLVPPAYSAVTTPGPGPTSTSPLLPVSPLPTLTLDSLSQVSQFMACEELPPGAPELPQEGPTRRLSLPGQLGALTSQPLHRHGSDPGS

COC(=O)C1=C(C)NC(C)=C([N+](=O)[O-])C1c1ccccc1C(F)(F)F (racemic) [Bay K 8644, 1,4-dihydro-2,6-dimethyl-5-nitro-4-[2′-(trifluoromethyl)phenyl]-3-pyridinecarboxylic acid methyl ester]
re-animation of larvae with arrest of the heart beat ([1]; arrest induced by 50 μM nifedipine for 1 h, added to bathing solution, 3 d old larvae (FIG. 5)): re-animated within minutes | contractility of nifedipine-treated zebrafish ([1]; nifedipine-treated larvae (FIG. 3)): strong increase in contractility | blocking of the effects of nifedipine ([1]; simultaneous addition with nifedipine, 4 d old larvae (FIG. 3)): completely blockable | effect on heart beat rate, contractility and blood flow (cardiac performance) of untreated fish [2]: nearly negligible effects | effect on heart beat rate, contractility and blood flow (cardiac performance) of untreated fish ([2]; listed as (+/−)Bay K 8644): nearly no effect

COc1ccc(CCN2CCC(Nc3nc4ccccc4n3Cc3ccc(F)cc3)CC2)cc1 [astemizole]
larvae with induced arrhythmic heart beat [3]: ~100 % of larvae

COc1cc(N)c(Cl)cc1C(=O)NC1CCN(CCCOc2ccc(F)cc2)CC1OC (stereo not shown) [cisapride]
block of HERG [4]: high affinity block | larvae with induced arrhythmic heart beat [3]: ~100 % of larvae

O=C(CCCN1CC=C(n2c(=O)[nH]c3ccccc32)CC1)c1ccc(F)cc1 [droperidol]
larvae with induced arrhythmic heart beat [3]: ~100 % of larvae

O=C(CCCN1CCC(O)(c2ccc(Cl)cc2)CC1)c1ccc(F)cc1 [haloperidol]
block of HERG [4]: high affinity block | larvae with induced arrhythmic heart beat [3]: ~100 % of larvae

O=c1[nH]c2ccccc2n1C1CCN(CCCC(c2ccc(F)cc2)c2ccc(F)cc2)CC1 [pimozide]
larvae with induced arrhythmic heart beat [3]: ~100 % of larvae

CC(C)NCC(O)COc1cccc2ccccc12 (stereo not shown) [propanolol]
effect on heart beat rate, contractility and blood flow [2]: decrease in heart beat rate, contractility and blood flow

CC(C)(C)c1ccc(C(O)CCCN2CCC(C(O)(c3ccccc3)c3ccccc3)CC2)cc1 (stereo not shown) [terfenadine]
larvae with induced arrhythmic heart beat [3]: ~100 % of larvae

CSc1ccc2c(c1)N(CCC1CCCCN1C)c1ccccc1S2 (stereo not shown) [thioridazine]
larvae with induced arrhythmic heart beat [3]: ~100 % of larvae

COc1ccc(CCN(C)CCCC(C#N)(c2ccc(OC)c(OC)c2)C(C)C)cc1OC (stereo not shown) [verapamil]
effect on heart beat rate, contractility and blood flow [2]: decrease in heart beat rate, contractility and blood flow
